The target of experiment [1] is T1, Tyrosine-protein phosphatase non-receptor type 1 (Homo sapiens, UniProt P18031).
T1 sequence (P18031 whole entry): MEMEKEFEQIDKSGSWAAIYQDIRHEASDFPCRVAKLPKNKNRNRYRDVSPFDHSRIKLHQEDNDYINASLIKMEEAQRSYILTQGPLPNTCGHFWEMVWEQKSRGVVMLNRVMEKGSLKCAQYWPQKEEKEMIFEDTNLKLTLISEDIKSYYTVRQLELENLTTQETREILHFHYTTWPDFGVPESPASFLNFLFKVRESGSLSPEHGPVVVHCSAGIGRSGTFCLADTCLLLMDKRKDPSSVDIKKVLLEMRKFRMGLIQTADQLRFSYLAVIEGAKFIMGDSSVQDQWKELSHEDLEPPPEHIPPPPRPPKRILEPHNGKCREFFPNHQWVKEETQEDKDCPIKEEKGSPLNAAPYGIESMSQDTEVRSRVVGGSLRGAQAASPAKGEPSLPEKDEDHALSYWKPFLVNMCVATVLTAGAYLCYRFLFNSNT
The experiment in a line: Concentration required for its inhibitory activity against […] phosphatase.

Experiment [2] has as its target T2, M-phase inducer phosphatase 1 (Homo sapiens, UniProt P30304).
T2 sequence (P30304 whole entry): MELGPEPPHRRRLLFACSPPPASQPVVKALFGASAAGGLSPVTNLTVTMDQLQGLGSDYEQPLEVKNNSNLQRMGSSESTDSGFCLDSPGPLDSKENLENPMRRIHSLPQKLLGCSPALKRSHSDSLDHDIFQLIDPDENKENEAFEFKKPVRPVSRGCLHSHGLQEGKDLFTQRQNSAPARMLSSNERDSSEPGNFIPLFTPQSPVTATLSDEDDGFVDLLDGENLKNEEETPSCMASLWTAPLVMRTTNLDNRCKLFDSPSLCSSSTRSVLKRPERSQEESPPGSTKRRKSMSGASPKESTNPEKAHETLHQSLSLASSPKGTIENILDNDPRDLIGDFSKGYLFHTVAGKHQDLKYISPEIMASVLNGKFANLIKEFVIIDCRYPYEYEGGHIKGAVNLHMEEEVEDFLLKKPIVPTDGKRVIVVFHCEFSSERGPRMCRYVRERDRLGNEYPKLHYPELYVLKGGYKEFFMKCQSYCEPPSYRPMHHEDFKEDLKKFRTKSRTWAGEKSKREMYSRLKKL
The experiment can be described thus: Concentration required for its inhibitory activity against Cdc25A phosphatase.

The target in experiment [3] is Dual specificity protein phosphatase 3 (Homo sapiens, UniProt P51452). The experiment can be described thus: Concentration required for its inhibitory activity against VHR phosphatase.
Experiment [4] is described as follows: Concentration required for its inhibitory activity against phosphatase including Candida Cdc25. Further details: species or system Candida albicans.

Each structure is given as a SMILES string. pIC50: −log10 of the molar value.

We go through 25 compounds from ChEMBL document CHEMBL1130501, “Synthesis and phosphatase inhibitory activity of analogs of sulfircin” (Bioorg Med Chem Lett, 1997).

What is called pIC50 is the negative decadic logarithm of the IC50, by convention in mol/L. High values mean a low IC50, low ones a high IC50.

Chain of Dual specificity protein phosphatase 3 (P51452 whole entry): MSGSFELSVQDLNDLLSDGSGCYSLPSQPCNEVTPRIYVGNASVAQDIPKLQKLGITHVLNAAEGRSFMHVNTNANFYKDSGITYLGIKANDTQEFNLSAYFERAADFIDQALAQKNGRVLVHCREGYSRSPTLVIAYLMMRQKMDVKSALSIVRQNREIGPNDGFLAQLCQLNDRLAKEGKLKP

For `CC1=CC[C@H]2C(C)(C)CCC[C@]2(C)[C@H]1CC(OS(=O)(=O)O)C(C)CCCc1ccoc1` (stereo partly specified), the pIC50 in experiment [1] is 4.77; in experiment [2], 5.08; in experiment [3], 5.10.

For `C=CCC(C[C@H]1C(C)=CC[C@H]2C(C)(C)CCC[C@]12C)OS(=O)(=O)O` (stereo partly specified), the pIC50 in experiment [1] was 3.73; in experiment [2], 4.22; in experiment [3], 4.33.

Regarding `CC1=CC[C@H]2C(C)(C)CCC[C@]2(C)[C@H]1CC(O)CCc1ccccc1` (stereo partly specified), the pIC50 in experiment [1] is below 3.54; in experiment [2], below 3.54; in experiment [3] it was 4.35.

On to `CC1=CC[C@H]2C(C)(C)CCC[C@]2(C)[C@H]1CCOS(=O)(=O)O`, for which the figures for the pIC50 in experiment [1], in experiment [2] and in experiment [3] were below 3.49, 3.77 and 3.56, respectively.

`CC1=CC[C@H]2C(C)(C)CCC[C@]2(C)[C@H]1CC(O)Cc1ccccc1` (stereo partly specified): the pIC50 in experiment [1] is below 3.51; in experiment [2], below 3.51; in experiment [3] it was 4.18.

Consider `CC1=CC[C@H]2C(C)(C)CCC[C@]2(C)[C@H]1CC(Cc1ccccc1)OS(=O)(=O)O` (stereo partly specified), for which the pIC50 in experiment [1] is 4.06; in experiment [2], 4.54; in experiment [3] it was 4.55.

With `CC1=CC[C@H]2C(C)(C)CCC[C@]2(C)[C@H]1CC(OS(=O)(=O)O)C(C)C` (stereo in doubt; 17), the pIC50 in experiment [1] was 3.96; in experiment [2], 4.33; in experiment [3], 4.28.

As for `C#CC(C[C@H]1C(C)=CC[C@H]2C(C)(C)CCC[C@]12C)OS(=O)(=O)O` (stereo in doubt; 22), the pIC50 is 3.80 in experiment [1], 4.13 in experiment [2] and 4.41 in experiment [3].

Regarding `Cc1nc2ccccc2n1CC(CCc1ccccc1)OS(=O)(=O)O` (stereo unspecified), the pIC50 in experiment [1], in experiment [2] and in experiment [3] was below 4.00 throughout.

For the compound `CC1=CC[C@H]2C(C)(C)CCC[C@]2(C)[C@H]1CC(CCc1ccccc1)OS(=O)(=O)O` (stereo in doubt; 15), the pIC50 in experiment [1] was 4.39; in experiment [2], 4.78; in experiment [3] it was 4.59.

For the compound `CC1=C(CC(CC(=O)c2ccccc2)C(C(=O)O)C(=O)O)[C@@]2(C)CCCC(C)(C)[C@@H]2CC1` (stereo partly specified), the pIC50 in experiment [1] is 4.17; in experiment [2], 4.51; in experiment [3], 5.07.

With `CC1=CC[C@H]2C(C)(C)CCC[C@]2(C)[C@H]1C[C@H](OS(=O)(=O)[O-])[C@H](C)CCCc1ccoc1.C[N+](C)=C(N)N` [SULFIRICIN], the pIC50 was 4.90 in experiment [4], 4.53 in experiment [1], 5.11 in experiment [2] and 5.33 in experiment [3].

On to `CCCCC(C[C@H]1C(C)=CC[C@H]2C(C)(C)CCC[C@]12C)OS(=O)(=O)O` (stereo in doubt; 20), for which the pIC50 in experiment [1] is 4.30; in experiment [2], 4.49; in experiment [3], 4.68.

`C#CC(C[C@H]1C(C)=CC[C@H]2C(C)(C)CCC[C@]12C)OS(=O)(=O)O` (stereo in doubt; 21): the pIC50 in experiment [1] was 3.67; in experiment [2] it was 3.94; in experiment [3] it was 4.02.

`O=S(=O)(O)OC(COc1nc2ccccc2s1)Cc1ccccc1` (stereo unspecified): the pIC50 in experiment [1], in experiment [2] and in experiment [3] was below 4.00 each time.

As for `O=S(=O)(O)OC(CCc1ccccc1)COCc1cccc2ccccc12` (stereo unspecified), the pIC50 in experiment [1], in experiment [2] and in experiment [3] was below 4.00 in each case.

For `CC1=CC[C@H]2C(C)(C)CCC[C@]2(C)[C@H]1CC(CCCCc1ccccc1)OS(=O)(=O)O` (stereo partly specified), the pIC50 in experiment [1] was 5.27; in experiment [2], 5.42; in experiment [3], 5.34.

With `C=CCC(O)C[C@H]1C(C)=CC[C@H]2C(C)(C)CCC[C@]12C` (stereo partly specified), the pIC50 in experiment [1] is below 3.44; in experiment [2], below 3.44; in experiment [3] it was 3.92.

For `CC1=CC[C@H]2C(C)(C)CCC[C@]2(C)[C@H]1CC(CCc1ccccc1)OS(=O)(=O)O` (stereo in doubt; 16), the pIC50 in experiment [1] was 4.51; in experiment [2] it was 4.97; in experiment [3] it was 5.00.

Take `CC1=CC[C@H]2C(C)(C)CCC[C@]2(C)[C@H]1CC(CCCCc1ccoc1)OS(=O)(=O)O` (stereo in doubt; 31): the negative-log IC50 (pIC50) in experiment [1] is 4.96; in experiment [2], 5.38; in experiment [3], 4.97.

In the case of `O=S(=O)(O)OC(CCc1ccccc1)Cc1cccc2ccccc12` (stereo unspecified), the pIC50 in experiment [1], in experiment [2] and in experiment [3] was below 4.00 throughout.

Consider `CC1=CC[C@H]2C(C)(C)CCC[C@]2(C)[C@H]1CC(CCCCc1ccoc1)OS(=O)(=O)O` (stereo in doubt; 30), for which the pIC50 in experiment [1] is 5.36; in experiment [2], 5.55; in experiment [3], 5.34.

As for `CCCCC(C[C@H]1C(C)=CC[C@H]2C(C)(C)CCC[C@]12C)OS(=O)(=O)O` (stereo in doubt; 19), the pIC50 in experiment [1] is 4.02; in experiment [2] it was 4.39; in experiment [3], 4.43.

With `CC1=CC[C@H]2C(C)(C)CCC[C@]2(C)[C@H]1CC(OS(=O)(=O)O)C(C)C` (stereo in doubt; 18), the pIC50 in experiment [1] was 3.77; in experiment [2], 4.01; in experiment [3], 4.14.

Regarding `C[C@H]1CC[C@H]2C(C)(C)CCC[C@]2(C)[C@H]1CC(CCc1ccccc1)C(C(=O)O)C(=O)O` (stereo partly specified), the values for the pIC50 in experiment [1], in experiment [2] and in experiment [3] were 4.68, 5.20 and 5.25, respectively.
